Values joined by “and” are separate entries in the source; they are usually repeats but may differ in a detail not shown here. Equal entries are not always repeated. Where two headings read alike, the source gives them in different places.
Assays:
[1] = system: lung cancer (A549) cells; assay: WST cell viability assay, A549; assay type: cell-based; conditions: Homo sapiens, A549, read-out: IC50 A549
[2] = system: PP2A; assay: PP2A activity in mouse brains after IP dosing (PP2A immunoprecipitation phosphatase assay, malachite green); assay type: in vivo, Balb/c mice; conditions: brain
Description: (§1) Coomassie (Bradford) Protein Assay Kit (Pierce); PP2A Immunoprecipitation Phosphatase Assay Kit (Millipore); Lysate preparation for low endogenous phosphate: 20 mM imidazole-HCl, 2 mM EDTA, 2 mM EGTA, 1 mM PMSF, 1 mM benzamidine, 10 ug/ml each of aprotinin, leupeptin, antipain, soybean trypsin inhibitor; Normal Mouse IgG (Millipore); Okadaic acid (OA) (Tocris); DMSO (Sigma).
(§2) • Species: Mus Musculus • Strain: Balb/c mice • Age: 6-8 weeks • Sex: female • Body weight: 18-22 g • Vendor: Shanghai Laboratory Animal Center, Shanghai, China; • Number of animals: 66 Balb/c mice plus spare
(§3) The mice were kept in laminar flow rooms at constant temperature and humidity with 4 animals in each cage. • Temperature: 20-25 • Humidity: 40-70%. • Light cycle: 12 hours light and 12 hours dark. • Cages: Made of polycarbonate. The size is 29 cm×17.5 cm×12 cm (L×w×H). The bedding material is wood debris, which is changed once per week. • Diet: Animals had free access to irradiation sterilized dry granule food during the entire study period. • Water: Animals had free access to sterile drinking water. • Cage identification: the identification labels for each cage contained the following information: number of animals, sex, strain, date arrival, treatment, study number, group number, and the starting date of the treatment. • Animal identification: Animals were marked by ear punch.
(§4) All the procedures related to animal handling, care, and the treatment in this study were performed according to guidelines approved by the Institutional Animal Care and Use Committee (IACUC) of WuXi AppTec (Shanghai), following the guidance of the Association for Assessment and Accreditation of Laboratory Animal Care (AAALAC). At the time of routine monitoring, the animals were checked and recorded for any effects of tumor growth on normal behavior such as mobility, food and water consumption (by looking only), body weight gain/loss, eye/hair matting and any other abnormal effect.
(§5) 1. Proper amount of the compounds were weighed. 2. The compounds were dissolved in 4% sterile sodium bicarbonate. 3. All of the compounds should be well dissolved and clear. 4. The compounds should be kept cold once in solution and injected within an hour. 5. The mice were administered intraperitoneally according to their body weights, 20 g mouse was treated with 0.2 ml compound solution. 6. Mice were treated with vehicle and compounds according to Table 1. 7. 3 hours after the dose, 3 mice from each group were euthanized by
(§6) CO2 exposure, and the brains and left lobe of livers were taken and snap-frozen in liquid nitrogen immediately. 6 hours after the dose, the other 3 mice from each group were euthanized by CO2 exposure, and the brains and left lobe of livers were taken and snap-frozen in liquid nitrogen immediately.
(§7) Preparation of malachite green phosphate detection solution Added […] of Solution B to each 1 mL of Solution A, kept at room temperature during use. […] of mixed solution AB is used per assay well.
(§8) Diluted 125 mL Phosphate Standard (Solution C) with 1125 mL of distilled water to make 0.1 mM working solution. The solution was used to prepare a phosphate standard curve as described in the table below.
(§9) 1. 25 μL of each phosphate standards was transferred to wells of microliter plate. 2. Added 100 μL of Malachite Green Solution AB. Mixed carefully without creating bubbles. 3. Cultured for 15 minutes at RT. 4. Measured absorbance at a wavelength between 650 nm in a microliter plate reader.
(§10) 1. Dissolved 1 mg Threonine Phosphopeptide (Catalog #12-219) in 1.10 mL of distilled water to prepare a 1 mM solution. 2. Aliquot peptide solution and stored at ˜20° C. as necessary.
(§11) 1. Mouse brain or liver was homogenized using lysis buffer (25 g/L), centrifuged at 12000 g for 10 minutes at […], and the supernatants were collected. 2. The protein was quantitated, and 240 μg of mouse brain or liver lysate was taken to assay phosphatase activity. 3. […]

[3] = system: breast cancer (2LMP) cells; assay: WST cell viability assay, 2LMP
Description: IC50 values were obtained for cytotoxicity against breast cancer (2LMP), glioblastoma (U-87) and lung cancer (A549) cells (See Table 5 and FIGS. 3-5).

[4] = system: glioblastoma (U-87) cells; assay: WST cell viability assay, U-87 MG; assay type: cell-based; conditions: Homo sapiens, U-87 MG
[5] = system: PP2A; assay: PP2A activity in mouse livers after IP dosing (PP2A immunoprecipitation phosphatase assay, malachite green); assay type: in vivo, Balb/c mice; conditions: liver
Description: as §1, §2, §3, §4, §5, §6, §7, §8, §9, §10, §11

[6] = high dose IP (mpk: 100 1.5, 113 2.2, 151 1.6, 153 1.7, 157 2.0), 3 h
[7] = high dose IP (mpk: 100 1.5, 113 2.2, 151 1.6, 153 1.7, 157 2.0), 6 h
[8] = low dose IP (mpk: 100 0.75, 113 1.1, 151 0.8, 153 0.85, 157 1.0), 3 h
[9] = low dose IP (mpk: 100 0.75, 113 1.1, 151 0.8, 153 0.85, 157 1.0), 6 h
[10] = high dose IP (mpk: 100 1.5, 113 2.2, 151 1.6, 157 2.0), 3 h
[11] = high dose IP (mpk: 100 1.5, 113 2.2, 151 1.6, 157 2.0), 6 h

Structure (SMILES): CN1CCN(C(=O)C2C3CCC(O3)C2C(=O)O)CC1 (stereo not shown) [Compound 100, 3-(4-methylpiperazine-1-carbonyl)-7-oxa-bicyclo[2,2,1]-heptane-2-carboxylic acid]
- IC50 [1]: 10.3 µM
- Average Conc. (group of 3 mice) [2, 6]: 1176.58
- Average Relative Activity (group, vehicle = 100) [2, 6]: 80.09
- Conc. (phosphate, single reading, per mouse) [2, 6]: 1090.16 and 1146.07 and 1273.56 and 1349.24 and 1116.43 and 1122.21
- Mean Conc. (per mouse) [2, 6]: 1118.11 and 1311.40 and 1119.32
- Mean Conc. less IgG blank (per mouse) [2, 6]: 1111.75 and 1305.03 and 1112.95
- Relative Conc. (per mouse, to vehicle) [2, 6]: 0.77 (2×) and 0.90
- Relative PP2A Activity (per mouse, vehicle = 100) [2, 6]: 75.68 and 88.84 and 75.76
- Average Conc. (group of 3 mice) [2, 7]: 1430.23
- Average Relative Activity (group, vehicle = 100) [2, 7]: 102.54
- Conc. (phosphate, single reading, per mouse) [2, 7]: 1524.93 and 1576.74 and 1180.05 and 1223.91 and 1496.73 and 1617.23
- Mean Conc. (per mouse) [2, 7]: 1550.84 and 1201.98 and 1556.98
- Mean Conc. less IgG blank (per mouse) [2, 7]: 1544.47 and 1195.62 and 1550.62
- Relative Conc. (per mouse, to vehicle) [2, 7]: 1.12 (2×) and 0.87
- Relative PP2A Activity (per mouse, vehicle = 100) [2, 7]: 110.73 and 85.72 and 111.17
- Average Conc. (group of 3 mice) [2, 8]: 1143.44
- Average Relative Activity (group, vehicle = 100) [2, 8]: 77.84
- Conc. (phosphate, single reading, per mouse) [2, 8]: 1131.61 and 1148.72 and 982.91 and 1046.54 and 1270.67 and 1318.39
- Mean Conc. (per mouse) [2, 8]: 1140.17 and 1014.72 and 1294.53
- Mean Conc. less IgG blank (per mouse) [2, 8]: 1133.80 and 1008.36 and 1288.16
- Relative Conc. (per mouse, to vehicle) [2, 8]: 0.78 and 0.69 and 0.89
- Relative PP2A Activity (per mouse, vehicle = 100) [2, 8]: 77.18 and 68.64 and 87.69
- Average Conc. (group of 3 mice) [2, 9]: 1009.84
- Average Relative Activity (group, vehicle = 100) [2, 9]: 72.40
- Conc. (phosphate, single reading, per mouse) [2, 9]: 996.89 and 1024.12 and 978.81 and 1073.53 and 990.38 and 1033.52
- Mean Conc. (per mouse) [2, 9]: 1010.51 and 1026.17 and 1011.95
- Mean Conc. less IgG blank (per mouse) [2, 9]: 1004.14 and 1019.81 and 1005.59
- Relative Conc. (per mouse, to vehicle) [2, 9]: 0.73 (2×) and 0.74
- Relative PP2A Activity (per mouse, vehicle = 100) [2, 9]: 71.99 and 73.11 and 72.09
- IC50 ([3]; read-out: IC50 2LMP, WST-20131015 (first value of the cell)): 3.41 µM
- IC50 ([3]; read-out: IC50 2LMP, WST-20131025 (second value of the cell)): 6.98 µM
- IC50 ([4]; read-out: IC50 U-87 MG, WST-20131017 (first value of the cell)): 19.9 µM
- IC50 ([4]; read-out: IC50 U-87 MG, WST-20131024 (second value of the cell)): 25.2 µM
- Average Conc. (group of 3 mice) [5, 10]: 290.15
- Average Relative Activity (group, vehicle = 100) [5, 10]: 73.9
- Conc. (phosphate, single reading, per mouse) [5, 10]: 340.38 and 353.99 and 282.08 and 493.05 and 279.92 and 293.74
- Mean Conc. (per mouse) [5, 10]: 347.18 and 387.56 and 286.83
- Mean Conc. less IgG blank (per mouse) [5, 10]: 296.81 and 337.19 and 236.46
- Relative Conc. (per mouse, to vehicle) [5, 10]: 0.76 and 0.86 and 0.6
- Relative PP2A Activity (per mouse, vehicle = 100) [5, 10]: 75.64 and 85.93 and 60.26
- Average Conc. (group of 3 mice) [5, 11]: 197.91
- Average Relative Activity (group, vehicle = 100) [5, 11]: 50.5
- Conc. (phosphate, single reading, per mouse) [5, 11]: 154.46 and 167.2 and 290.5 and 323.97 and 262.21 and 291.36
- Mean Conc. (per mouse) [5, 11]: 160.83 and 307.23 and 276.79
- Mean Conc. less IgG blank (per mouse) [5, 11]: 110.45 and 256.86 and 226.41
- Relative Conc. (per mouse, to vehicle) [5, 11]: 0.28 and 0.66 and 0.58
- Relative PP2A Activity (per mouse, vehicle = 100) [5, 11]: 28.21 and 65.59 and 57.82
- Average Conc. (group of 3 mice) [5, 8]: 289.29
- Average Relative Activity (group, vehicle = 100) [5, 8]: 73.7
- Conc. (phosphate, single reading, per mouse) [5, 8]: 292.01 and 308.85 and 318.57 and 329.58 and 359.6 and 429.35
- Mean Conc. (per mouse) [5, 8]: 300.43 and 324.08 and 394.47
- Mean Conc. less IgG blank (per mouse) [5, 8]: 250.06 and 273.7 and 344.1
- Relative Conc. (per mouse, to vehicle) [5, 8]: 0.64 and 0.7 and 0.88
- Relative PP2A Activity (per mouse, vehicle = 100) [5, 8]: 63.73 and 69.75 and 87.69
- Average Conc. (group of 3 mice) [5, 9]: 316.5
- Average Relative Activity (group, vehicle = 100) [5, 9]: 80.8
- Conc. (phosphate, single reading, per mouse) [5, 9]: 391.13 and 414.88 and 358.3 and 359.17 and 328.94 and 348.8
- Mean Conc. (per mouse) [5, 9]: 403 and 358.74 and 338.87
- Mean Conc. less IgG blank (per mouse) [5, 9]: 352.63 and 308.36 and 288.5
- Relative Conc. (per mouse, to vehicle) [5, 9]: 0.9 and 0.79 and 0.74
- Relative PP2A Activity (per mouse, vehicle = 100) [5, 9]: 90.05 and 78.74 and 73.67

From patent US20160264593A1 (priority 2013, published 2016)
